One test addresses T1, CDK4/CyclinD1 (Homo sapiens, UniProt P11802).
T1 construct: purchased Thermofisher PR8064A
The test can be described thus: Assay for inhibition of CDK4/CyclinD1 (Caliper microfluidic kinase assay). The class given is biochemical. Put shortly: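 Caliper microfluidic mobility-shift assay tracking phosphorylation of 1 μM FL-34 peptide by 1 nM CDK4/CyclinD1 with 200 μM ATP in HEPES pH 7.5 buffer with 10 mM MgCl2. Reaction ran 3 h at room temperature, was stopped with EDTA, and IC50 came from a 4-parameter sigmoidal fit.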

The next test deals with T2, CDK6/CyclinD3 (Homo sapiens, UniProt Q00534).
T2 construct: purchased Carna 04-107
T2 sequence (Q00534 whole entry): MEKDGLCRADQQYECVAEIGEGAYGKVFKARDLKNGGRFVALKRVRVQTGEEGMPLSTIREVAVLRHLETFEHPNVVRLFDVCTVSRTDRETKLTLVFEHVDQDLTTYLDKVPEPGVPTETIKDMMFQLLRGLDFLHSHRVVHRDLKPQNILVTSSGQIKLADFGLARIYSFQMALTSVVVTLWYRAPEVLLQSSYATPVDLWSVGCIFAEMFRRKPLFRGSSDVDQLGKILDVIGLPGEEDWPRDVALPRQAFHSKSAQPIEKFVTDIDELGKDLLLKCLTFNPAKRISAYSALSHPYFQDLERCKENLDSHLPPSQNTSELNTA
T2 sequence (P30281 whole entry partner): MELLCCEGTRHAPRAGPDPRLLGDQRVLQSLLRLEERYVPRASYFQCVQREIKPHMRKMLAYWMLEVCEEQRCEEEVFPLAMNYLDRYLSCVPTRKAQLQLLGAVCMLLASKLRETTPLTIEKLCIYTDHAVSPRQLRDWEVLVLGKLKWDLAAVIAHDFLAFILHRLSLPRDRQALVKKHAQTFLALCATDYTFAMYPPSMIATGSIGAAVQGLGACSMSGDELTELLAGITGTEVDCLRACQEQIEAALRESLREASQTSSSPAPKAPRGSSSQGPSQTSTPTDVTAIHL
The test can be described thus: Assay for inhibition of CDK6/CyclinD3 (Caliper microfluidic kinase assay). The class given is biochemical. Here is the method:
The CDK6 enzyme assay for IC50 determination was performed as follows. Microfluidic kinase detection technology (Caliper) was used to monitor the phosphorylation of peptide substrate by CDK6/CyclinD3. The total reaction volume is 15 μL containing buffer A (100 mM HEPES (pH 7.5), 0.1% BSA, 0.01% Triton X-100, 1 mM DTT, 10 mM MgCl2, 10 μM Sodium Orthovanadate, 10 μM Beta-Glycerophosphate), 300 μM ATP, 2 nM CDK6/CyclinD3 (Carna, 04-107), 1 μM FL-34 (5-FAM-[…]), and the test compound at appropriate dilutions in DMSO. All components were added to the 384-well plate (Corning, 4514), and incubated at Room Temperature for 3 hours. The reaction was terminated by addition of 15 μL Stop Buffer (180 mM HEPES (pH 7.5), 20 mM EDTA, Coating-3 reagent (PerkinElmer, 760050)). The plate was then loaded on Caliper EZ Reader (EZ Reader II, PerkinElmer, HD-4HYSG2772), and the reaction mixtures including substrate and product were sipped into the microfluidic chip for separation and detection. The IC50 values of the test compound were determined by fitting the inhibition curves by 4 parameter sigmoidal dose-response model using the Xlfit5/GraphPad Prism 5 software.

In the next test the target is T3, CDK2/CyclinE1 (Homo sapiens, UniProt P24941).
T3 construct: purchased SignalChem C29-18G
The test can be described thus: Assay for inhibition of CDK2/CyclinE1 (Caliper microfluidic kinase assay). The test is classed as biochemical. The conditions noted are these: read-out: CDK2 IC50. The essentials: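 Caliper microfluidic mobility-shift assay: 5 nM CDK2/CyclinE1, 100 μM ATP, 5 μM FL-18 peptide (5-FAM-QSPKKG-NH2) in pH 7.5 HEPES buffer with MgCl2, DTT, BSA, Triton X-100. Incubated 3 hours at room temperature, EDTA-stopped; IC50 from 4-parameter sigmoidal fit.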

In another test the test system is T47D breast cancer cells. The test can be described thus: Anti-proliferation assay in T47D cell (Cyquant, day 6). The test is classed as cell-based, human. The following applies: Homo sapiens, T47D, anti-proliferation, T47D cells; read-out: T47D IC50. An excerpt: T47D is a human breast cancer cell line commonly used in biomedical research involving the hormonal expression of cancer cells. T47D cells are distinct from other human breast cancer cells in that their progesterone receptors (PR) are not regulated by estradiol, a hormone that is abundant within the cells themselves. T47D cells have been employed in studies of the effects of progesterone on breast cancer and the corresponding transcriptional regulation caused by introduced drugs. The cells have been noted to be extremely resistant to estrogens and antiestrogens.
T47D breast cancer cells from American Type Culture Collection (ATCC, HTB-133) were plated at 3000 cells/well in 96-well plates, and were incubated in RPMI 1640 medium (Gibco, 31800105) with 10% Fetal Bovine Serum (FBS, Biowest, FB-1058) at 37° C., 5% CO2. After overnight incubation, baseline values were measured of the samples from one plate using Cyquant reagent (Invitrogen, C35011) following manufacturer's recommendations. Cells were incubated with the detection reagent for 1 hour at 37° C., and then the fluorescence was measured with excitation at 485 nm and emission at 535 nm using Spectra Max M5 (Molecular Devices, HD-4HYSG3196). Other plates were dosed with compounds at a ten-point dose concentration from 10 μM to 0.51 nM in a 3-fold dilution scheme. On day 6 after compound addition, Cyquant reagent was added and the fluorescence was measured using Spectra Max M5. The IC50 values of the test compound's anti-proliferation activity were determined from the baseline subtracted viability readout curve using Xlfit5/GraphPad Prism 5 software.

By pIC50 is commonly meant −log10 of the IC50, conventionally taken in molar units.

Molecules are shown by their SMILES. pIC50: −log10 of the molar value. Where two headings read alike, the source gives them in different places. Some results are limits rather than exact numbers.

T1 sequence (P11802 whole entry): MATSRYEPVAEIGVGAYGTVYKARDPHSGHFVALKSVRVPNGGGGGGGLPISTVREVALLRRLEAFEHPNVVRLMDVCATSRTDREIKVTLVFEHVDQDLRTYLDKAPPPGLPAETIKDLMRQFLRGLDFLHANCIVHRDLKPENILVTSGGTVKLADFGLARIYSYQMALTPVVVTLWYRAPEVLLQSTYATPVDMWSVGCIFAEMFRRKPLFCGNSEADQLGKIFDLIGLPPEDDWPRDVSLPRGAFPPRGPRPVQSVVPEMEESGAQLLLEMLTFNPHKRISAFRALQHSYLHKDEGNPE
T1 sequence (P24385 whole entry partner): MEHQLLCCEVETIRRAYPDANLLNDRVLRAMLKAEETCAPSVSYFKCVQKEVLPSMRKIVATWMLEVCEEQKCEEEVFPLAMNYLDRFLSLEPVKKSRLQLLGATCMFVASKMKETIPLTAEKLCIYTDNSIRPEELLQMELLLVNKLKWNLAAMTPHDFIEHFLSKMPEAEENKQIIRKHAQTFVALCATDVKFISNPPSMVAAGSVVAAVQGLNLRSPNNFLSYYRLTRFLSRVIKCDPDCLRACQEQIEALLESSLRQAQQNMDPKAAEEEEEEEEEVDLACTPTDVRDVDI

For `C=CC(=O)Nc1cc(Nc2ncc(F)c(-c3ccn4nc(C)c(C)c4c3)n2)c(OC)cc1N(C)CCN(C)C` [Compound 10 disclosed in CN109503573A, reference compound], the pIC50 against CDK4/CyclinD1 (comparative compound) and against CDK6/CyclinD3 (comparative compound) was under 5.00 each time.

For `CC(C)c1cnn2ccc(-c3ccnc(Nc4ccc(N5CCC(N(C)C)CC5=O)cn4)n3)cc12` (centres unmarked) [Synthetic Example 16], the pIC50 is over 8.00 at CDK4/CyclinD1 (CDK4/CyclinD1, 200 μM ATP); over 8.00 against CDK6/CyclinD3 (CDK6/CyclinD3, 300 μM ATP); 7.00 to 8.00 on CDK2/CyclinE1 (CDK2/CyclinE1, 100 μM ATP).

In the case of `CCN1CCN(Cc2ccc(Nc3ncc(F)c(-c4cc5c(C(C)C)n(C)nc5cn4)n3)nc2)CC1` [Synthetic Example 58], the pIC50 against CDK4/CyclinD1 (CDK4/CyclinD1, 200 μM ATP) is 6.00 to 7.00; against CDK6/CyclinD3 (CDK6/CyclinD3, 300 μM ATP), under 6.00; in the test on T47D breast cancer cells, under 6.00.

Turning to `CCN1CCN(Cc2ccc(Nc3ncc(F)c(-c4cn5c(C(C)C)cnc5c(OC)n4)n3)nc2)CC1` [Synthetic Example 60], the pIC50 on CDK4/CyclinD1 (CDK4/CyclinD1, 200 μM ATP) was 7.00 to 8.00; against CDK6/CyclinD3 (CDK6/CyclinD3, 300 μM ATP), 6.00 to 7.00.

For the compound `COc1nc(-c2nc(Nc3ccc(N4CCN(CCS(C)(=O)=O)CC4=O)cn3)ncc2F)cc2c1nc(C)n2C(C)C` [Synthetic Example 121], the pIC50 on CDK4/CyclinD1 (CDK4/CyclinD1, 200 μM ATP) is over 8.00; against CDK6/CyclinD3 (CDK6/CyclinD3, 300 μM ATP), 7.00 to 8.00; on CDK2/CyclinE1 (CDK2/CyclinE1, 100 μM ATP) it was under 6.00.

Turning to `COc1nc(-c2nc(Nc3ccc(N4CCN(C5CNC5)CC4=O)cn3)ncc2F)cc2c1nc(C)n2C(C)C` [Synthetic Example 138], the pIC50 was over 8.00 against CDK4/CyclinD1 (CDK4/CyclinD1, 200 μM ATP); 7.00 to 8.00 at CDK6/CyclinD3 (CDK6/CyclinD3, 300 μM ATP); 6.00 to 7.00 at CDK2/CyclinE1 (CDK2/CyclinE1, 100 μM ATP).

On to `CC(C)N1CCN(c2ccc(Nc3nccc(-c4cc5c(ncn5C(C)C)c(F)n4)n3)nc2)CC1` [Synthetic Example 287], for which the pIC50 at CDK4/CyclinD1 (CDK4/CyclinD1, 200 μM ATP) is over 8.00; against CDK6/CyclinD3 (CDK6/CyclinD3, 300 μM ATP) it was 7.00 to 8.00; at CDK2/CyclinE1 (CDK2/CyclinE1, 100 μM ATP), 6.00 to 7.00.

Turning to `CC(C)c1cnn2ccc(-c3nc(Nc4ccc(N5CCOCC5)cn4)ncc3F)cc12` [compound 13], the pIC50 against CDK4/CyclinD1 (CDK4/CyclinD1, 200 μM ATP) is 7.00 to 8.00; against CDK6/CyclinD3 (CDK6/CyclinD3, 300 μM ATP), 7.00 to 8.00; in the test on T47D breast cancer cells, 6.30 to 7.00.

Regarding `O=C1COCCN1c1ccc(Nc2ncc(F)c(-c3ccn4ncc(C5=CCOCC5)c4c3)n2)nc1` [compound 17], the pIC50 against CDK4/CyclinD1 (CDK4/CyclinD1, 200 μM ATP) was 7.00 to 8.00; at CDK6/CyclinD3 (CDK6/CyclinD3, 300 μM ATP), 6.00 to 7.00.

As for `O=C1COCCN1c1ccc(Nc2ncc(F)c(-c3ccn4ncc(C5CCOCC5)c4c3)n2)nc1` [compound 18], the pIC50 is 7.00 to 8.00 against CDK4/CyclinD1 (CDK4/CyclinD1, 200 μM ATP); 6.00 to 7.00 against CDK6/CyclinD3 (CDK6/CyclinD3, 300 μM ATP); 6.00 to 6.30 in the test on T47D breast cancer cells.

Turning to `C=C(C)c1cnn2ccc(-c3nc(Nc4ccc(CN5CCN(CC)CC5)cn4)ncc3F)cc12` [compound 19], the pIC50 on CDK4/CyclinD1 (CDK4/CyclinD1, 200 μM ATP) is 7.00 to 8.00; on CDK6/CyclinD3 (CDK6/CyclinD3, 300 μM ATP), 6.00 to 7.00.

Regarding `CCN1CCN(Cc2ccc(Nc3ncc(F)c(-c4ccn5ncc(Br)c5c4)n3)nc2)CC1` [compound 20], the pIC50 was 6.00 to 7.00 on CDK4/CyclinD1 (CDK4/CyclinD1, 200 μM ATP) and under 6.00 at CDK6/CyclinD3 (CDK6/CyclinD3, 300 μM ATP).

Take `CCN1CCN(Cc2ccc(Nc3ncc(F)c(-c4ccn5ncc(C(C)C)c5c4)n3)nc2)CC1` [compound 22]: the pIC50 against CDK4/CyclinD1 (CDK4/CyclinD1, 200 μM ATP) was over 8.00; against CDK6/CyclinD3 (CDK6/CyclinD3, 300 μM ATP), 7.00 to 8.00.

For `CC(C)c1cnn2ccc(-c3nc(Nc4ccc(N5CCOCC5=O)c(C(F)(F)F)c4)ncc3F)cc12` [compound 23], the pIC50 against CDK4/CyclinD1 (CDK4/CyclinD1, 200 μM ATP) is 7.00 to 8.00; on CDK6/CyclinD3 (CDK6/CyclinD3, 300 μM ATP), 7.00 to 8.00; with T47D breast cancer cells, 6.00 to 6.30.

As to `CCN1CCN(Cc2cccc(Nc3ncc(F)c(-c4ccn5ncc(C(C)C)c5c4)n3)n2)CC1` [compound 24], the pIC50 against CDK4/CyclinD1 (CDK4/CyclinD1, 200 μM ATP) was 6.00 to 7.00; at CDK6/CyclinD3 (CDK6/CyclinD3, 300 μM ATP) it was under 6.00.

Turning to `CCn1cnc2c(OC)nc(-c3nc(Nc4ccc(N5CCOCC5=O)cn4)ncc3F)cc21` [compound 84], the values for the pIC50 at CDK4/CyclinD1 (CDK4/CyclinD1), at CDK6/CyclinD3 (CDK6/CyclinD3) and on CDK2/CyclinE1 (CDK2/CyclinE1) were 7.00 to 8.00, 6.00 to 7.00 and under 6.00, respectively.
